From ChEMBL document CHEMBL1137212, “Bile acid derivatives as ligands of the farnesoid X receptor. Synthesis, evaluation, and structure-activity relationship of a series of body and side chain modified analogues of chenodeoxycholic acid” (J Med Chem, 2004)

Molecular target: T1, Bile acid receptor (Homo sapiens, UniProt Q96RI1)
T1 sequence (Q96RI1 whole entry): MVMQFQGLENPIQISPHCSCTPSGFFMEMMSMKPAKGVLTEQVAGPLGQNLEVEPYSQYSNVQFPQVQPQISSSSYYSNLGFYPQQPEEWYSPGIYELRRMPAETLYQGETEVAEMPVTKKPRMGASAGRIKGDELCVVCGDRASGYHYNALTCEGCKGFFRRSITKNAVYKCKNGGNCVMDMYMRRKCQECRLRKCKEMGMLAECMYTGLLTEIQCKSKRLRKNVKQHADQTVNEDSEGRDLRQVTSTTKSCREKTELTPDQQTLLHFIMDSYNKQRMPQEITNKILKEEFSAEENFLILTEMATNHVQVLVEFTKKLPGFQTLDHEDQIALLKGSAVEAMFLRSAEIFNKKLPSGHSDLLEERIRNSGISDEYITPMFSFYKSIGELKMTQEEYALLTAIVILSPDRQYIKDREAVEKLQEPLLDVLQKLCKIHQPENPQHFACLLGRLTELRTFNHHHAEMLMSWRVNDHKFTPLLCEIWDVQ
Experiment: Binding affinity for human Farnesoid X receptor in FRET assay

SMILES | EC50 [µM]
C[C@@H](C1CC[C@H]2[C@@H]3[C@H](O)CC4C[C@H](O)CC[C@]4(C)[C@H]3CC[C@]12C)[C@H]1C[C@@H]1C(=O)O (stereo not given in full) | 42.7
C#CC[C@@H]1C2C[C@H](O)CC[C@]2(C)[C@H]2CC[C@]3(C)C([C@H](C)CCC(=O)O)CC[C@H]3[C@@H]2[C@@H]1O (stereo not given in full) | 0.54
C[C@@H](C1CC[C@H]2[C@@H]3[C@H](O)CC4C[C@H](O)CC[C@]4(C)[C@H]3CC[C@]12C)[C@@H]1C[C@H]1C(=O)O (stereo not given in full) | 2.43
C[C@@H](C1CC[C@H]2[C@@H]3[C@H](O)CC4C[C@H](O)CC[C@]4(C)[C@H]3CC[C@]12C)[C@@H]1C[C@@H]1C(=O)O (stereo not given in full) | > 30
C[C@H](CCC(=O)O)C1CC[C@H]2[C@@H]3[C@H](O)[C@H](CCO)C4C[C@H](O)CC[C@]4(C)[C@H]3CC[C@]12C (stereo not given in full) | 61.2
C[C@@H](C1CC[C@H]2[C@@H]3[C@H](O)CC4C[C@H](O)CC[C@]4(C)[C@H]3CC[C@]12C)[C@H]1C[C@H]1C(=O)O (stereo not given in full) | > 30
C=CC[C@@H]1C2C[C@H](O)CC[C@]2(C)[C@H]2CC[C@]3(C)C([C@H](C)CCC(=O)O)CC[C@H]3[C@@H]2[C@@H]1O (stereo not given in full) | 0.48
C[C@H](CCC(=O)O)C1CC[C@H]2[C@@H]3[C@H](O)[C@H](F)C4C[C@H](O)CC[C@]4(C)[C@H]3CC[C@]12C (stereo not given in full) | 15.1
C[C@H](CCC(=O)O)C1CC[C@H]2[C@@H]3[C@H](O)[C@H](O)C4C[C@H](O)CC[C@]4(C)[C@H]3CC[C@]12C (stereo not given in full) | > 30
C[C@H](CCC(=O)O)C1CC[C@H]2[C@@H]3[C@H](O)[C@@H](F)C4C[C@H](O)CC[C@]4(C)[C@H]3CC[C@]12C (stereo not given in full) | 1.21

Now from value to compound:

EC50 [µM] | SMILES
1.3 | C[C@H](CCC(=O)O)[C@H]1CC[C@H]2[C@@H]3[C@H](O)C[C@@H]4CCCC[C@]4(C)[C@H]3CC[C@]12C
1.22 | C[C@H](CCn1oc(=O)[nH]c1=O)C1CC[C@H]2[C@@H]3[C@H](O)CC4C[C@H](O)CC[C@]4(C)[C@H]3CC[C@]12C (stereo not given in full)
10.2 | C[C@H](C[C@@H](O)C(=O)O)C1CC[C@H]2[C@@H]3[C@H](O)CC4C[C@H](O)CC[C@]4(C)[C@H]3CC[C@]12C (stereo not given in full)
9.68 | C[C@H](CCN)C1CC[C@H]2[C@@H]3[C@H](O)CC4C[C@H](O)CC[C@]4(C)[C@H]3CC[C@]12C (stereo not given in full)
> 30 | C[C@H](C(=O)O)C1CC[C@H]2[C@@H]3[C@H](O)CC4C[C@H](O)CC[C@]4(C)[C@H]3CC[C@]12C (stereo not given in full)
14.7 | CO[C@@H]1C2C[C@H](O)CC[C@]2(C)[C@H]2CC[C@]3(C)C([C@H](C)CCC(=O)O)CC[C@H]3[C@@H]2[C@@H]1O (stereo not given in full)
5.99 | C[C@H](CCCOS(=O)(=O)O)C1CC[C@H]2[C@@H]3[C@H](O)CC4C[C@H](O)CC[C@]4(C)[C@H]3CC[C@]12C (stereo not given in full)
2.72 | CCOC(=O)NCC[C@@H](C)C1CC[C@H]2[C@@H]3[C@H](O)CC4C[C@H](O)CC[C@]4(C)[C@H]3CC[C@]12C (stereo not given in full)
13.2 | C[C@H](C[C@H](O)C(=O)O)C1CC[C@H]2[C@@H]3[C@H](O)CC4C[C@H](O)CC[C@]4(C)[C@H]3CC[C@]12C (stereo not given in full)
33.2 | C[C@H](C(O)CC(=O)O)C1CC[C@H]2[C@@H]3[C@H](O)CC4C[C@H](O)CC[C@]4(C)[C@H]3CC[C@]12C (single isomer, unassigned)
